{"source": "paper PMC10056986", "about": "(Pharmaceuticals, 2023)", "key": {"CK1 alpha": {"biological_target": "CK1 alpha (Homo sapiens, UniProt P48729)", "sequence (P48729 whole entry)": "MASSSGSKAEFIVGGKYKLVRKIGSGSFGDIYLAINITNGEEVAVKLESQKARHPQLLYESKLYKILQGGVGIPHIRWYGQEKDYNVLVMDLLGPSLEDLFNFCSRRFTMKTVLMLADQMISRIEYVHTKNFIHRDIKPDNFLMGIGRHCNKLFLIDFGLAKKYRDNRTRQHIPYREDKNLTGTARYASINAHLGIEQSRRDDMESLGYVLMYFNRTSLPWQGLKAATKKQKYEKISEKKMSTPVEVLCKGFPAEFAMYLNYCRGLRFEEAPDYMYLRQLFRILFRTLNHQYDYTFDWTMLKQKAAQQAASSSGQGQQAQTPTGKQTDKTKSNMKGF", "assay": "biochemical"}, "JNK1": {"biological_target": "JNK1 (Homo sapiens, UniProt P45983)", "assay": "biochemical"}, "MAPKAPK2": {"biological_target": "MAPKAPK2 (Homo sapiens, UniProt P49137)", "assay": "biochemical"}, "op-delta": {"biological_target": "op-delta (Homo sapiens, UniProt P41143)", "sequence (P41143 whole entry)": "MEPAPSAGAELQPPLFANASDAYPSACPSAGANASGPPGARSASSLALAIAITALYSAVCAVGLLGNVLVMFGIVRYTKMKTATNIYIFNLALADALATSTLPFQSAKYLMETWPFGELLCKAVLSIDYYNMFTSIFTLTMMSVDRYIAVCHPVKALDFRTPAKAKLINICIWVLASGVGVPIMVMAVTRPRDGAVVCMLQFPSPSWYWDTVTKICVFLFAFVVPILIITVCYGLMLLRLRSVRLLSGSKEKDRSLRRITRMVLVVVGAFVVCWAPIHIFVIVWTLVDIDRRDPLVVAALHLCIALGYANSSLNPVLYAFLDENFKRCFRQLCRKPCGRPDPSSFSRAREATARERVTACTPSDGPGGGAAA", "assay": "cell-based"}, "op-kappa": {"biological_target": "op-kappa (Homo sapiens, UniProt P41145)", "sequence (P41145 whole entry)": "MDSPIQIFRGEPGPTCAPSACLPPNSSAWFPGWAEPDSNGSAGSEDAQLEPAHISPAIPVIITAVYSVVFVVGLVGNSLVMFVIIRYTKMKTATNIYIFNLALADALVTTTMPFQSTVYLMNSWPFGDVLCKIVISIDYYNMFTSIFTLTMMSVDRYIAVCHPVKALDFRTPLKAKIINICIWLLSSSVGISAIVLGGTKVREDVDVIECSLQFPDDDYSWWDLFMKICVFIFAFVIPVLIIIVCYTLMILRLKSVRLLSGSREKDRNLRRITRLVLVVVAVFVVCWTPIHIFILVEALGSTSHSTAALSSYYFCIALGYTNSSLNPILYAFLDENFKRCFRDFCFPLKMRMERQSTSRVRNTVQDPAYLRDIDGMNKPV", "assay": "cell-based"}, "Alpha1a": {"biological_target": "Alpha1a (Homo sapiens, UniProt P35348)", "sequence (P35348 whole entry)": "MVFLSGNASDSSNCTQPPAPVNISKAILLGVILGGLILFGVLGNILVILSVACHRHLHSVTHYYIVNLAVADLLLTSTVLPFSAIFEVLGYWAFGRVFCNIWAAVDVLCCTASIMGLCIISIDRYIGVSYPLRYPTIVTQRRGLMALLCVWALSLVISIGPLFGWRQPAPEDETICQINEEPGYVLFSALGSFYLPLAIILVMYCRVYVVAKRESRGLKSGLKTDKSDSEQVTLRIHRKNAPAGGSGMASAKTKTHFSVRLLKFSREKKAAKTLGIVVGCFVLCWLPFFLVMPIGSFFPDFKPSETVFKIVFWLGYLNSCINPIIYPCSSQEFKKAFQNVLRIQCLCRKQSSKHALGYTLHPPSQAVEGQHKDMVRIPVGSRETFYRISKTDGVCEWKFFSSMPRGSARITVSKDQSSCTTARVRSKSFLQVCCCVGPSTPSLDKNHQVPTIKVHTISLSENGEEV", "assay": "cell-based"}, "M3": {"biological_target": "M3 (Homo sapiens, UniProt P20309)", "sequence (P20309 whole entry)": "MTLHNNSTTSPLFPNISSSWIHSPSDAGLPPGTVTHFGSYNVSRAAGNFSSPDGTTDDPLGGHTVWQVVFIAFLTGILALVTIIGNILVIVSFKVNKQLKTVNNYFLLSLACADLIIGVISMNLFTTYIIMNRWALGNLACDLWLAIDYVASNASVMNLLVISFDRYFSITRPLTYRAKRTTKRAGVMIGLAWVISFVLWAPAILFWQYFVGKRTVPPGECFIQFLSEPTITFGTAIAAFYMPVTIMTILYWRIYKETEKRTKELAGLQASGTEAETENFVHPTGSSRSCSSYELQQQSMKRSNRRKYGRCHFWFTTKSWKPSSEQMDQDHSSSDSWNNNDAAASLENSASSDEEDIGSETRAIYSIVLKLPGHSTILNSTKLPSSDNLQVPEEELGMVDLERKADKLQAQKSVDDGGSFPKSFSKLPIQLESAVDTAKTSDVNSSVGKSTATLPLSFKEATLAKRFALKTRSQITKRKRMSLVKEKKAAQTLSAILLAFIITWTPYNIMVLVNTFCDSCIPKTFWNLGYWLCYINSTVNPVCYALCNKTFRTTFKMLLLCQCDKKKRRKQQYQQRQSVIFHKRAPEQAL", "assay": "cell-based"}, "H1": {"biological_target": "H1 (Homo sapiens, UniProt P35367)", "sequence (P35367 whole entry)": "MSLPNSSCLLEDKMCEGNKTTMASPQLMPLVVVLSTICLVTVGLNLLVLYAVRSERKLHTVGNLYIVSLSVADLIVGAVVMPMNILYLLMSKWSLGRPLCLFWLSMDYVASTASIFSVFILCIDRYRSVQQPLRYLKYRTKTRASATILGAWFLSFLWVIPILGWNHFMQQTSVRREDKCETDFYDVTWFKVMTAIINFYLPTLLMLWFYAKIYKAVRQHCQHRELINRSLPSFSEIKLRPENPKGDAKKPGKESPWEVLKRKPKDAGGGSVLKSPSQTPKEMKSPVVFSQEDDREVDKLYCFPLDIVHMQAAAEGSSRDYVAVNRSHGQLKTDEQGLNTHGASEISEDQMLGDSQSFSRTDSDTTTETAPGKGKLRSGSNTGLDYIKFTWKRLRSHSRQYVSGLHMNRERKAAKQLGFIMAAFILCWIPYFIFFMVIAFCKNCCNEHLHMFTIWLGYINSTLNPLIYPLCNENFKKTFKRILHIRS", "assay": "cell-based"}, "Alpha2a": {"biological_target": "Alpha2a (Homo sapiens, UniProt P08913)", "sequence (P08913 whole entry)": "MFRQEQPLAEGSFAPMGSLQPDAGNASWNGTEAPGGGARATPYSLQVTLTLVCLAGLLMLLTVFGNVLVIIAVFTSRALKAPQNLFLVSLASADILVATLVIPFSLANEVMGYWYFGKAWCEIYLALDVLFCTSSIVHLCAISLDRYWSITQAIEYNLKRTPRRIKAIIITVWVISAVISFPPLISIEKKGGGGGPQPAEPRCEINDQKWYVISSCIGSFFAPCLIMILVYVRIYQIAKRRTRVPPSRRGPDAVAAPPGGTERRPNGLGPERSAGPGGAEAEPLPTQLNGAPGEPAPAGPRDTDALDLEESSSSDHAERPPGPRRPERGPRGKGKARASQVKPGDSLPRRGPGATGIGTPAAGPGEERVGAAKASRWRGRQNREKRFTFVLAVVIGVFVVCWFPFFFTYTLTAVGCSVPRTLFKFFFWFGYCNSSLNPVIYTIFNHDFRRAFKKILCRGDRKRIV", "assay": "cell-based"}, "Eta": {"biological_target": "Eta (Homo sapiens, UniProt P25101)", "sequence (P25101 21-427)": "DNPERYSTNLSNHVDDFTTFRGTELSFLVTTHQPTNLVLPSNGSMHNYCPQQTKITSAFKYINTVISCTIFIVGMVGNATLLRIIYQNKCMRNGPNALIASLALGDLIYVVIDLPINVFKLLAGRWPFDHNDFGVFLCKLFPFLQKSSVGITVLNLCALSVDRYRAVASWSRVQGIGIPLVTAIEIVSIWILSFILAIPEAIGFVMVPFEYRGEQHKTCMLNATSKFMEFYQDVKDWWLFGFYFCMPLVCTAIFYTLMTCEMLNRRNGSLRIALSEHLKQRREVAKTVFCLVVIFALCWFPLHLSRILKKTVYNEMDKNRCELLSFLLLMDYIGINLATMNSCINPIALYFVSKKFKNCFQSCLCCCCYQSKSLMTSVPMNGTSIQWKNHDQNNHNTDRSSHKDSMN", "assay": "cell-based"}, "CCKa": {"biological_target": "T1, CCKa (Homo sapiens, UniProt P32238)", "T1 sequence (P32238 1-428)": "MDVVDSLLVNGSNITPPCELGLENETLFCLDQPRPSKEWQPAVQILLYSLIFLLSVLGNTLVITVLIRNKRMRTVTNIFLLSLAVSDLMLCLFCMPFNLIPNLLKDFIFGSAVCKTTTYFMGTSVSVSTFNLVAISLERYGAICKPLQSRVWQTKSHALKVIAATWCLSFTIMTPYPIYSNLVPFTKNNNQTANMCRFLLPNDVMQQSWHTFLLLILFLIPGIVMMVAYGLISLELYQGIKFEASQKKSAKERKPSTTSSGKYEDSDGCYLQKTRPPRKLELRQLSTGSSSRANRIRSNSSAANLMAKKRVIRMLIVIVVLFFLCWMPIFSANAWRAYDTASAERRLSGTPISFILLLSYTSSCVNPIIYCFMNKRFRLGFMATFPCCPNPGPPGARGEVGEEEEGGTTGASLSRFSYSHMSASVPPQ", "assay": "cell-based"}, "5HT1A": {"biological_target": "5HT1A (Homo sapiens, UniProt P08908)", "sequence (P08908 whole entry)": "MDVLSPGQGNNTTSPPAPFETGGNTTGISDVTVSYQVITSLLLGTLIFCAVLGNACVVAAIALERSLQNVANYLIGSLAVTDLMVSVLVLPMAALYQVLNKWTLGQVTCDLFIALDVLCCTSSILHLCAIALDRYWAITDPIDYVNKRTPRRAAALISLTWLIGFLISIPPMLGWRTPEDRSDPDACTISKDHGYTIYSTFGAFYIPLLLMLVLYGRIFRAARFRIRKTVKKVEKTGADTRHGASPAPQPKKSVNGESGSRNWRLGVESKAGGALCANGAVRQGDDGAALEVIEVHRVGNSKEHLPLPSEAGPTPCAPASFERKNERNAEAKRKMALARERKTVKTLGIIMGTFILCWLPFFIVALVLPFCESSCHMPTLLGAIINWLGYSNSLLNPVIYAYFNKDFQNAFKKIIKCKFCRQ", "assay": "cell-based"}, "5HT2A": {"biological_target": "5HT2A (Homo sapiens, UniProt P28223)", "sequence (P28223 whole entry)": "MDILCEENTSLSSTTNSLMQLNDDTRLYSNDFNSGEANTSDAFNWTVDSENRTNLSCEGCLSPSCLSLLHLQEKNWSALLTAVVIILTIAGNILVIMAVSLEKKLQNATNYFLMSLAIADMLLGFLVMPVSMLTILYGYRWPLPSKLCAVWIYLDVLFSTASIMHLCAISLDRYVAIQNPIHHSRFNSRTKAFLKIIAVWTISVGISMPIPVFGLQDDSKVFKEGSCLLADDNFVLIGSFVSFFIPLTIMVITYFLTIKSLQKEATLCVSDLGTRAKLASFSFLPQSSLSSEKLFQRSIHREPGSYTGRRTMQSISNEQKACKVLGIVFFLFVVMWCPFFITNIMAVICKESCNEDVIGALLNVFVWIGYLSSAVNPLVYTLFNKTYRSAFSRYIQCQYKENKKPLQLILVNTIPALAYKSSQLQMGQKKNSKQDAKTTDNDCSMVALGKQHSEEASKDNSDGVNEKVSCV", "assay": "cell-based"}, "V1a": {"biological_target": "V1a (Homo sapiens, UniProt P37288)", "sequence (P37288 whole entry)": "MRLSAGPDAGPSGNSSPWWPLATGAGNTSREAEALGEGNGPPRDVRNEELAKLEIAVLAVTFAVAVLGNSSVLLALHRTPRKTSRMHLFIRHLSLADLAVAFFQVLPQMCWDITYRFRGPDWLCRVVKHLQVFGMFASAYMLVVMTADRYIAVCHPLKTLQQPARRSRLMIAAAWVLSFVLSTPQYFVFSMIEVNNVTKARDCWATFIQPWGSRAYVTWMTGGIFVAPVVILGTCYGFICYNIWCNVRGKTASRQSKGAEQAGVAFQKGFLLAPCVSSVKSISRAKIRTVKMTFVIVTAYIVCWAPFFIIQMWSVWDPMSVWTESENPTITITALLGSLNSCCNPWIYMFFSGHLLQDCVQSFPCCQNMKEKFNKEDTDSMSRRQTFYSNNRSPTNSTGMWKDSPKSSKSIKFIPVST", "assay": "cell-based"}, "[1]": {"tested_on": "Influenza virus A/Mal/302/54 (H1N1)", "assay": "microbe, parasite or virus in culture", "assay_type": "cell-based", "details": "H1N1, MDCK, read-out: EC50 (mean ± SD)"}, "[2]": {"tested_on": "Influenza virus A/PR/8/34 (H1N1)", "assay": "microbe, parasite or virus in culture", "assay_type": "cell-based", "details": "H1N1|PR/8, MDCK, read-out: EC50 (mean ± SD)"}, "[3]": {"tested_on": "Influenza virus A/WS/33 (H1N1)", "assay": "microbe, parasite or virus in culture", "assay_type": "cell-based", "details": "H1N1, MDCK, read-out: EC50 (mean ± SD)"}, "Influenza virus B/Lee/40": {"tested_on": "Influenza virus B/Lee/40", "assay": "microbe, parasite or virus in culture", "assay_type": "cell-based", "details": "MDCK, read-out: EC50 (mean ± SD)"}, "HSV-1 GHSV-UL46": {"tested_on": "HSV-1 GHSV-UL46", "assay": "microbe, parasite or virus in culture", "assay_type": "cell-based, herpes simplex virus type 1", "details": "Human alphaherpesvirus 1, Vero C1008, read-out: EC50 for Virus"}, "HRV 1B": {"tested_on": "HRV 1B", "assay": "microbe, parasite or virus in culture", "assay_type": "cell-based", "details": "Human rhinovirus sp., H1-HeLa, read-out: EC50 for Virus"}, "A/PR/8/34 (H1N1)": {"tested_on": "A/PR/8/34 (H1N1)", "design": "species or system BALB/c mice", "details": "mouse, in vivo"}, "[4]": {"tested_on": "influenza A virus/California/07/2009 (H1N1)", "design": "species or system ferrets", "details": "in vivo, po, 25 mg/kg/day"}, "22 GPCR targets": {"tested_on": "22 GPCR targets", "assay_type": "cell-based, human", "details": "read-out: EC50 (agonistic activity)"}, "in vivo [5]": {"assay": "in vivo", "details": "both, SD, rat; for AUC(0-t): AUC0-last"}, "in vivo [6]": {"assay": "in vivo", "details": "female, BALB/c, mouse, po"}, "hERG potassium channel": {"biological_target": "hERG potassium channel (Homo sapiens, UniProt Q12809)", "assay": "in vitro"}, "in vitro": {"assay": "in vitro", "details": "human"}, "KDR": {"biological_target": "KDR (Homo sapiens, UniProt P35968)", "assay": "biochemical"}, "SRC": {"biological_target": "SRC (Homo sapiens, UniProt P12931)", "assay": "biochemical"}, "TAOK2": {"biological_target": "TAOK2 (Homo sapiens, UniProt Q9UL54)", "assay": "biochemical"}, "[7]": {"tested_on": "H1N1 and H3N2 influenza A virus strains", "assay": "microbe, parasite or virus in culture", "details": "MDCK"}, "[8]": {"details": "10,000 nM, read-out: Inhibition at Maximum Concentration (%)"}}, "note": "Like-named read-outs stand apart in the source and are kept apart here."}
{"molecule": "O=C(O)[C@H]1C2CCC(CC2)[C@@H]1Nc1nc(-c2n[nH]c3ncc(F)cc23)nc(C2CC2)c1F", "note": "[ZSP1273]", "values": [{"measurement": "IC50", "setting": "CK1 alpha", "value": "> 10", "unit": "µM"}, {"measurement": "IC50", "setting": "JNK1", "value": "> 10", "unit": "µM"}, {"measurement": "IC50", "setting": "MAPKAPK2", "value": "> 10", "unit": "µM"}, {"measurement": "EC50", "setting": "op-delta", "value": "> 12", "unit": "µM"}, {"measurement": "Activity at Maximum Concentration (%)", "setting": "op-delta; 12,000 nM", "value": "−10.64", "unit": "%"}, {"measurement": "EC50", "setting": "op-kappa", "value": "> 12", "unit": "µM"}, {"measurement": "Activity at Maximum Concentration (%)", "setting": "op-kappa; 12,000 nM", "value": "−18.96", "unit": "%"}, {"measurement": "EC50", "setting": "Alpha1a", "value": "> 12", "unit": "µM"}, {"measurement": "Activity at Maximum Concentration (%)", "setting": "Alpha1a; 12,000 nM", "value": "−2.93", "unit": "%"}, {"measurement": "EC50", "setting": "M3", "value": "> 12", "unit": "µM"}, {"measurement": "Activity at Maximum Concentration (%)", "setting": "M3; 12,000 nM", "value": "−2.89", "unit": "%"}, {"measurement": "EC50", "setting": "H1", "value": "> 12", "unit": "µM"}, {"measurement": "Activity at Maximum Concentration (%)", "setting": "H1; 12,000 nM", "value": 0.73, "unit": "%"}, {"measurement": "IC50", "setting": "Alpha2a", "value": "> 10", "unit": "µM"}, {"measurement": "inhibition at 10 µM", "setting": "Alpha2a; [8]", "value": -9.3, "unit": "%"}, {"measurement": "IC50", "setting": "Eta", "value": "> 10", "unit": "µM"}, {"measurement": "inhibition at 10 µM", "setting": "Eta; [8]", "value": 9.07, "unit": "%"}, {"measurement": "IC50", "setting": "CCKa", "value": "> 10", "unit": "µM"}, {"measurement": "inhibition at 10 µM", "setting": "CCKa; [8]", "value": -17.6, "unit": "%"}, {"measurement": "IC50", "setting": "5HT1A", "value": "> 10", "unit": "µM"}, {"measurement": "inhibition at 10 µM", "setting": "5HT1A; [8]", "value": 19, "unit": "%"}, {"measurement": "IC50", "setting": "5HT2A", "value": "> 10", "unit": "µM"}, {"measurement": "inhibition at 10 µM", "setting": "5HT2A; [8]", "value": 2.56, "unit": "%"}, {"measurement": "IC50", "setting": "V1a", "value": "> 10", "unit": "µM"}, {"measurement": "inhibition at 10 µM", "setting": "V1a; [8]", "value": 7.24, "unit": "%"}, {"measurement": "EC50", "setting": "[1]", "value": "0.028 ± 0.011", "unit": "nM"}, {"measurement": "EC50", "setting": "[2]", "value": "0.042 ± 0.01", "unit": "nM"}, {"measurement": "EC50", "setting": "[3]", "value": "0.032 ± 0.01", "unit": "nM"}, {"measurement": "EC50", "setting": "Influenza virus B/Lee/40", "value": "> 0.001", "unit": "µM"}, {"measurement": "EC50", "setting": "HSV-1 GHSV-UL46", "value": "> 10", "unit": "µM"}, {"measurement": "EC50", "setting": "HRV 1B", "value": 7.88, "unit": "µM"}, {"measurement": "mortality", "setting": "A/PR/8/34 (H1N1)", "value": 40, "unit": "%"}, {"measurement": "viral load in nasal lavage fluid vs vehicle", "setting": "[4]", "value": "decreased significantly"}, {"measurement": "EC50", "setting": "22 GPCR targets", "value": "> 12", "unit": "µM"}, {"measurement": "Vd", "setting": "in vivo [5]; iv, 3 mg/kg", "value": "0.508 ± 0.241", "unit": "L/kg"}, {"measurement": "clearance", "setting": "in vivo [5]; iv, 3 mg/kg", "value": "12.9 ± 2.23", "unit": "mL/min/kg"}, {"measurement": "half-life", "setting": "in vivo [5]; iv, 3 mg/kg", "value": "2.11 ± 1.46", "unit": "h"}, {"measurement": "AUC(0-t)", "setting": "in vivo [5]; iv, 3 mg/kg", "value": "3950 ± 773", "unit": "ng·h/mL"}, {"measurement": "bioavailability", "setting": "in vivo [5]; po, 3 mg/kg", "value": 22.8, "unit": "%"}, {"measurement": "AUC(0-t)", "setting": "in vivo [5]; po, 3 mg/kg", "value": "899 ± 213", "unit": "ng·h/mL"}, {"measurement": "Cmax", "setting": "in vivo [5]; po, 3 mg/kg", "value": "661 ± 304", "unit": "ng/mL"}, {"measurement": "AUC(0-t)", "setting": "in vivo [5]; po, 15 mg/kg", "value": 12100, "unit": "ng·h/mL"}, {"measurement": "Cmax", "setting": "in vivo [5]; po, 15 mg/kg", "value": "5680 ± 2470", "unit": "ng/mL"}, {"measurement": "AUC(0-t)", "setting": "in vivo [5]; po, 75 mg/kg", "value": 77700, "unit": "ng·h/mL"}, {"measurement": "Cmax", "setting": "in vivo [5]; po, 75 mg/kg", "value": 17200, "unit": "ng/mL"}, {"measurement": "AUC(0-t)", "setting": "in vivo [6]; 3 mg/kg", "value": 1040, "unit": "ng·h/mL"}, {"measurement": "Cmax", "setting": "in vivo [6]; 3 mg/kg", "value": 439, "unit": "ng/mL"}, {"measurement": "AUC(0-t)", "setting": "in vivo [6]; 10 mg/kg", "value": 6190, "unit": "ng·h/mL"}, {"measurement": "Cmax", "setting": "in vivo [6]; 10 mg/kg", "value": 3010, "unit": "ng/mL"}, {"measurement": "AUC(0-t)", "setting": "in vivo [6]; 30 mg/kg", "value": 56000, "unit": "ng·h/mL"}, {"measurement": "Cmax", "setting": "in vivo [6]; 30 mg/kg", "value": 23700, "unit": "ng/mL"}, {"measurement": "inhibition at 40 µM", "setting": "hERG potassium channel", "value": "< 50", "unit": "%"}, {"measurement": "CC50", "setting": "in vitro", "value": "> 10", "unit": "µM"}, {"measurement": "IC50", "setting": "KDR", "value": "> 10", "unit": "µM"}, {"measurement": "IC50", "setting": "SRC", "value": "> 10", "unit": "µM"}, {"measurement": "IC50", "setting": "TAOK2", "value": "> 10", "unit": "µM"}, {"measurement": "EC50", "setting": "[7]; read-out: EC50 values range", "value": "0.01 to 0.063", "unit": "nM"}, {"measurement": "EC50", "setting": "[7]; read-out: average EC50 value range", "value": "0.012 to 0.063", "unit": "nM"}]}
